US20220132849A1, “USE OF SPIROPIDION” (SYNGENTA CROP PROTECTION AG, priority 2019, published 2022)

Columns and labels:
selected pests = assay: Soil drench on vegetable plants, overall comparison over crops and pests; type: in vivo; settings: soil treatment at the same dose rate (10 mg ai/plant); range of vegetable crops and pests
Experimental: (§1) To the soil at the base of vegetable plants naturally infested with a population of a selected pest (refer Table 2) was applied by drench 30 to 100 mL per plant of an active ingredient (ai) solution at a dose rate of 10 mg ai/plant, wherein the solutions consisted of spiropidion or spirotetramat as active ingredient. Soil application was made 3 to 7 days after transplant in a nursery tray. Spiropidion was applied as a dilution of an SC300 formulation in water. Spirotetramat was applied as a dilution of an SC240 formulation in water. Mortality rates were recorded as a percentage against an untreated check plant and were evaluated at between 5 and 40 days after soil application.

[1] = Uptake from soil into tomato plants after drench, LC/MS of roots, stem and leaves; set-up: species or system Solanum lycopersicum Ailsa Craig; settings: in vivo
Experimental: In a greenhouse at 20° C., tomato plants (Solanum lycopersicum Ailsa Craig at BBCH 12 growth stage) grown in 50% Jip 3 and 50% peat in 5″ pots were drenched (in five replicates) with 50 mL of a 100 ppm aqueous active ingredient solution (5 mg of active ingredient per plant) prepared from dilution of (i) a spiropidion SC300 formulation (SC=suspension concentrate), and (ii) commercially-available spirotetramat as a SC240 formulation. At four intervals post-treatment (1, 7, 14 and 21 days), tomato plants subjected to treatments (i) and (ii) were sectioned into roots, stem and separate leaf segments, washed and extracted with the quantification by liquid chromatography/mass spectrometry (LC/MS) of amounts (μg) of spiropidion and its dione (cide), and spirotetramat and its dione (cide).

Tetranychus urticae = assay: Soil drench on naturally infested vegetable plants, mortality; type: in vivo; settings: soil drench 10 mg ai/plant, 5 to 40 days after application
Experimental: as §1

Thrips sp. = assay: as above; type: in vivo; settings: soil drench 10 mg ai/plant, 5 to 40 days after application
Experimental: as §1

Bemisia tabaci = assay: as above; type: in vivo; settings: soil drench 10 mg ai/plant, 5 to 40 days after application
Experimental: as §1

Aphis gossypii = assay: as above; type: in vivo; settings: soil drench 10 mg ai/plant, 5 to 40 days after application
Experimental: as §1

[2] = system: coffee leaf miner (Perileucoptera coffeella); assay: Soil drench on naturally infested coffee plants, mortality; type: in vivo; settings: 30 to 95 days after application, against untreated check plant
Experimental: To the soil surface at the base of separate coffee plants naturally infested with a population of coffee leaf miner (Perileucoptera coffeella) was applied as a drench 50 to 100 mL of an active ingredient (ai) solution at a dose rate of 390 mg ai/plant, wherein the active ingredient was spiropidion, or thiamethoxam as a commercial standard. Spiropidion was applied as a dilution of an SC300 formulation in water. Thiamethoxam was applied as a dilution of a WG25 formulation in water. Mortality rates were recorded as a pest control percentage against an untreated check plant and were evaluated at between 30 and 95 days after soil application of the respective active ingredients.

In the case of CCOC(=O)OC1=C(c2c(C)cc(Cl)cc2C)C(=O)N(C)C12CCN(OC)CC2 [spiropidion], the “mortality rates compared to spirotetramat” value (selected pests) is reported as “consistently higher” and the “rate of uptake from the soil compared to spirotetramat” value [1] is reported as “much greater rate of uptake from the soil”.
In the case of CCOC(=O)OC1=C(c2cc(C)ccc2C)C(=O)N[C@]12CC[C@@H](OC)CC2 [spirotetramat], the “% Mortality rate against untreated plant” value (Tetranychus urticae; Test no. 1, Eggplant) is reported as 62%, the “% Mortality rate against untreated plant” value (Tetranychus urticae; Test no. 2, Eggplant) is reported as 85% and the “% Mortality rate against untreated plant” value (Tetranychus urticae; Test no. 21, Hot pepper) is reported as 45%. For the same compound, the “% Mortality rate against untreated plant” value (Thrips sp.; Test no. 9, Cucumber) was 90%, the “% Mortality rate against untreated plant” value (Thrips sp.; Test no. 11, Melon) was 70% and the “% Mortality rate against untreated plant” value (Thrips sp.; Test no. 12, Melon) was 90%. The “% Mortality rate against untreated plant” value (Thrips sp.; Test no. 13, Melon) was 64%, the “% Mortality rate against untreated plant” value (Thrips sp.; Test no. 22, Hot pepper) was 46% and the “% Mortality rate against untreated plant” value (Thrips sp.; Test no. 23, Sweet pepper) was 53%. The “% Mortality rate against untreated plant” value (Bemisia tabaci; Test no. 3, Eggplant) was 68%, the “% Mortality rate against untreated plant” value (Bemisia tabaci; Test no. 4, Eggplant) was 93% and the “% Mortality rate against untreated plant” value (Bemisia tabaci; Test no. 5, Eggplant) was 76%. The “% Mortality rate against untreated plant” value (Bemisia tabaci; Test no. 6, Eggplant) was 91%, the “% Mortality rate against untreated plant” value (Bemisia tabaci; Test no. 7, Eggplant) was 96% and the “% Mortality rate against untreated plant” value (Bemisia tabaci; Test no. 14, Melon) was 64%. The “% Mortality rate against untreated plant” value (Bemisia tabaci; Test no. 16, Squash) was 83%, the “% Mortality rate against untreated plant” value (Bemisia tabaci; Test no. 17, Squash) was 42% and the “% Mortality rate against untreated plant” value (Bemisia tabaci; Test no. 20, Tomato) was 84%. The “% Mortality rate against untreated plant” value (Aphis gossypii; Test no. 8, Eggplant) was 71%, the “% Mortality rate against untreated plant” value (Aphis gossypii; Test no. 10, Cucumber) was 87% and the “% Mortality rate against untreated plant” value (Aphis gossypii; Test no. 15, Melon) was 63%. For the same compound, the “% Mortality rate against untreated plant” value (Aphis gossypii; Test no. 18, Squash) was 93% and the “% Mortality rate against untreated plant” value (Aphis gossypii; Test no. 19, Squash) was 84%.
With CN1COCN(Cc2cnc(Cl)s2)/C1=N\[N+](=O)[O-] [thiamethoxam] the “% Mortality rate” value ([2]; Test no. 1, soil drench 390 mg ai/plant) was 39%, the “% Mortality rate” value ([2]; Test no. 2, soil drench 390 mg ai/plant) was 68% and the “% Mortality rate” value ([2]; Test no. 3, soil drench 390 mg ai/plant) was 81%. The “% Mortality rate” value ([2]; Test no. 4, soil drench 390 mg ai/plant) was 73% and the “% Mortality rate” value ([2]; Test no. 5, soil drench 390 mg ai/plant) was 38%.
